ChEMBL document CHEMBL6092149, “Discovery of 1(2H)-phthalazinone and 1(2H)-isoquinolinone derivatives as potent hematopoietic progenitor kinase 1 (HPK1) inhibitors” (Eur J Med Chem, 2024)

Key:
[1] = target: T1, Mitogen-activated protein kinase kinase kinase kinase 1 (Homo sapiens, UniProt Q92918); experiment: Inhibition of N-terminal DYKDDDDK recombinant human HPK1 (1 to 346 residues) expressed in Sf21 insect cells preincubated for 10 min followed by fluorescein PKC and ATP addition and measured after 90 min by Envision2104 Multilabel Reader analysis
Target sequence in this assay (Q92918 whole entry, the tested form may be a part): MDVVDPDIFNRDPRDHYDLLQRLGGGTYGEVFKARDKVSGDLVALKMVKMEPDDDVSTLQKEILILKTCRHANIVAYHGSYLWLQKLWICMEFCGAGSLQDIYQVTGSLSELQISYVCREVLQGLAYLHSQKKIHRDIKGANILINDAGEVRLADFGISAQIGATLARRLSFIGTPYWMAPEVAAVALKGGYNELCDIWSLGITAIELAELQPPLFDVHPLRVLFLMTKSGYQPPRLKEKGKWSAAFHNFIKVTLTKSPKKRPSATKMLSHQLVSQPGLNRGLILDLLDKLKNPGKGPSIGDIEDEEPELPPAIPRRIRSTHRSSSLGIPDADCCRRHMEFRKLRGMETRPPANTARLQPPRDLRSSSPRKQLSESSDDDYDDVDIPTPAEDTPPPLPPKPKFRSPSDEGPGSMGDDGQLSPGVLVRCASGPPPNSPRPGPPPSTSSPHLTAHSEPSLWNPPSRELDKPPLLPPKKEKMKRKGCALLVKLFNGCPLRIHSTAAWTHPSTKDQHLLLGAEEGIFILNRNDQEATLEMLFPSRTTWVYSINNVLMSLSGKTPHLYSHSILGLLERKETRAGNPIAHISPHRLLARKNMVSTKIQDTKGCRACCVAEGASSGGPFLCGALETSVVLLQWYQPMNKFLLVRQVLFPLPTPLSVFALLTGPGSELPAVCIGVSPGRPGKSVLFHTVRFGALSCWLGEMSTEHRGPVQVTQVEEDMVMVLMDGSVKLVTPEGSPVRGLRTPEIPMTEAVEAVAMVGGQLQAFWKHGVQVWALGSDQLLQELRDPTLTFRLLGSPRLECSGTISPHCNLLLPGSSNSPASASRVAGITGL

[2] = target: T1, Mitogen-activated protein kinase kinase kinase kinase 1; experiment: Inhibition of HPK1 in human Jurkat cells assessed as reduction in SLP76 phosphorylation pretreated for 1 hr followed by anti-CD3 addition and measured after 15 min by ELISA method; assay type: cell-based
Target sequence in this assay (Q92918 whole entry, the tested form may be a part): as above

[3] = target: T1, Mitogen-activated protein kinase kinase kinase kinase 1; experiment: Inhibition of HPK1 in human T cells assessed as increase in IL-2 secretion measured after 24 hrs by ELISA method; assay type: cell-based, T-cell
[4] = Half life in overnight fasted mouse at 1 mg/kg, iv; assay type: ADME, organism-based; conditions: in vivo
[5] = Plasma clearance in overnight fasted mouse at 1 mg/kg, iv; assay type: ADME, organism-based
[6] = AUC (0 to 24 hrs) in overnight fasted mouse at 10 mg/kg, po; assay type: ADME, organism-based; conditions: in vivo
[7] = Oral bioavailability in in overnight fasted mouse at 10 mg/kg; assay type: ADME, organism-based; conditions: in vivo
[8] = Plasma Clearance in overnight fasted rat at 1 mg/kg, iv; assay type: ADME, organism-based
[9] = Cmax in overnight fasted rat at 10 mg/kg, po; assay type: ADME, organism-based; conditions: in vivo
[10] = AUC (0 to 24 hrs) in overnight fasted rat at 10 mg/kg, po; assay type: ADME, organism-based; conditions: in vivo
[11] = Oral bioavailability in in overnight fasted rat at 10 mg/kg; assay type: ADME, organism-based; conditions: in vivo
[12] = Cmax in overnight fasted mouse at 10 mg/kg, po; assay type: ADME, organism-based; conditions: in vivo
[13] = target: Mitogen-activated protein kinase kinase kinase kinase 2 (Homo sapiens, UniProt Q12851); experiment: Inhibition of N-terminal GST tagged recombinant human MAP4K2 (1 to 820 residues) expressed in Sf21 insect cells preincubated for 10 min followed by fluorescein PKC and ATP addition and measured after 90 min by Envision2104 Multilabel Reader analysis
[14] = target: Mitogen-activated protein kinase kinase kinase kinase 3 (Homo sapiens, UniProt Q8IVH8); experiment: Inhibition of GST-tagged recombinant human MAP4K3 (1 to 380 residues) extracted from Baculovirus infected Sf9 insect cells preincubated for 10 min followed by fluorescein PKC and ATP addition and measured after 90 min by Envision2104 Multilabel Reader analysis
[15] = target: Mitogen-activated protein kinase kinase kinase kinase 4 (Homo sapiens, UniProt O95819); experiment: Inhibition of N-terminal GST-tagged recombinant human MAP4K4 (1 to 328 residues) expressed in Sf21 insect cells preincubated for 10 min followed by fluorescein PKC and ATP addition and measured after 90 min by Envision2104 Multilabel Reader analysis
[16] = target: Mitogen-activated protein kinase kinase kinase kinase 5 (Homo sapiens, UniProt Q9Y4K4); experiment: Inhibition of GST-tagged recombinant human full length MAP4K5 expressed in insect cells preincubated for 10 min followed by fluorescein PKC and ATP addition and measured after 90 min by Envision2104 Multilabel Reader analysis; design: species or system Insect cell
Misshapen-like kinase 1 = Misshapen-like kinase 1 (Homo sapiens, UniProt Q8N4C8); experiment: Inhibition of N-terminal GST-tagged recombinant human MAP4K6 (7 to 139 residues) expressed in Sf21 insect cells preincubated for 10 min followed by fluorescein PKC and ATP addition and measured after 90 min by Envision2104 Multilabel Reader analysis
[17] = target: Mitogen-activated protein kinase 3 (Homo sapiens) (UniProt P27361); experiment: Inhibition of ERK1 (unknown origin) at 1000 nM incubated for 1 hrs by active site-directed competition binding assay relative to control
[18] = target: Inhibitor of nuclear factor kappa-B kinase subunit beta (Homo sapiens) (UniProt O14920); experiment: Inhibition of IKKbeta (unknown origin) at 1000 nM incubated for 1 hrs by active site-directed competition binding assay relative to control
[19] = target: Tyrosine-protein kinase ITK/TSK (Homo sapiens) (UniProt Q08881); experiment: Inhibition of ITK (unknown origin) at 1000 nM incubated for 1 hrs by active site-directed competition binding assay relative to control
[20] = target: Mitogen-activated protein kinase 14 (Homo sapiens) (UniProt Q16539); experiment: Inhibition of P38alpha (unknown origin) at 1000 nM incubated for 1 hrs by active site-directed competition binding assay relative to control
[21] = target: RAF proto-oncogene serine/threonine-protein kinase (Homo sapiens) (UniProt P04049); experiment: Inhibition of RAF1 (unknown origin) at 1000 nM incubated for 1 hrs by active site-directed competition binding assay relative to control
Homo sapiens = organism: Homo sapiens; experiment: Inhibition of TAK1 (unknown origin) at 1000 nM incubated for 1 hrs by active site-directed competition binding assay relative to control
[22] = target: Tyrosine-protein kinase ZAP-70 (Homo sapiens) (UniProt P43403); experiment: Inhibition of ZAP70 (unknown origin) at 1000 nM incubated for 1 hrs by active site-directed competition binding assay relative to control
[23] = target: Mitogen-activated protein kinase kinase kinase kinase 1 (Mus musculus) (UniProt P70218); experiment: In vivo inhibition of HPK1 in female BALB/c mouse assessed as reduction in SLP76 phosphorylation in spleen at 100 mg/kg qd, ip and measured after 24 hrs post dosing by Western blot analysis relative to control; assay type: functional, organism-based
CT26 = experiment: Antitumor activity against mouse CT26 cells allografted in female BALB/c mouse assessed as tumor growth inhibition at 3 mg/kg, ip administered twice daily and measured on 13 day in presence of presence of anti-PD-1 relative to control; assay type: functional; conditions: CT26, 312 h, read-out: TGI
[24] = Toxicity against BALB/c mouse allografted with mouse CT26 cells assessed as body weight loss at 30 mg/kg, administered orally twice daily for 2 weeks; assay type: organism-based; conditions: in vivo, po, 336 h
[25] = Toxicity against BALB/c mouse […] with mouse CT26 cells assessed as body weight loss at 3 mg/kg, ip administered twice daily and measured on 13 day in presence of presence of anti-PD-1; assay type: organism-based; conditions: in vivo, 312 h
[26] = Toxicity in CD-1 mouse assessed as body weight loss at 300 mg/kg, po; assay type: organism-based; conditions: in vivo
[27] = Toxicity in CD-1 mouse assessed as body weight loss at 1000 mg/kg, po; assay type: organism-based; conditions: in vivo
[28] = target: T1, Mitogen-activated protein kinase kinase kinase kinase 1; experiment: Inhibition of human HPK1 at 1000 nM incubated for 1 hrs by active site-directed competition binding assay relative to control; values are per cent of control
Target sequence in this assay (Q92918 whole entry, looked up, the tested form may be a part): as the sequence (Q92918 whole entry, the tested form may be a part) above

[29] = target: RAC-gamma serine/threonine-protein kinase (Homo sapiens) (UniProt Q9Y243); experiment: Inhibition of AKT3 (unknown origin) at 1000 nM incubated for 1 hrs by active site-directed competition binding assay relative to control; values are per cent of control
[30] = target: Calcium/calmodulin-dependent protein kinase type IV (Homo sapiens) (UniProt Q16566); experiment: Inhibition of CAMK4 (unknown origin) at 1000 nM incubated for 1 hrs by active site-directed competition binding assay relative to control; values are per cent of control

Mitogen-activated protein kinase kinase kinase kinase 2, sequence (Q12851 whole entry, the tested form may be a part): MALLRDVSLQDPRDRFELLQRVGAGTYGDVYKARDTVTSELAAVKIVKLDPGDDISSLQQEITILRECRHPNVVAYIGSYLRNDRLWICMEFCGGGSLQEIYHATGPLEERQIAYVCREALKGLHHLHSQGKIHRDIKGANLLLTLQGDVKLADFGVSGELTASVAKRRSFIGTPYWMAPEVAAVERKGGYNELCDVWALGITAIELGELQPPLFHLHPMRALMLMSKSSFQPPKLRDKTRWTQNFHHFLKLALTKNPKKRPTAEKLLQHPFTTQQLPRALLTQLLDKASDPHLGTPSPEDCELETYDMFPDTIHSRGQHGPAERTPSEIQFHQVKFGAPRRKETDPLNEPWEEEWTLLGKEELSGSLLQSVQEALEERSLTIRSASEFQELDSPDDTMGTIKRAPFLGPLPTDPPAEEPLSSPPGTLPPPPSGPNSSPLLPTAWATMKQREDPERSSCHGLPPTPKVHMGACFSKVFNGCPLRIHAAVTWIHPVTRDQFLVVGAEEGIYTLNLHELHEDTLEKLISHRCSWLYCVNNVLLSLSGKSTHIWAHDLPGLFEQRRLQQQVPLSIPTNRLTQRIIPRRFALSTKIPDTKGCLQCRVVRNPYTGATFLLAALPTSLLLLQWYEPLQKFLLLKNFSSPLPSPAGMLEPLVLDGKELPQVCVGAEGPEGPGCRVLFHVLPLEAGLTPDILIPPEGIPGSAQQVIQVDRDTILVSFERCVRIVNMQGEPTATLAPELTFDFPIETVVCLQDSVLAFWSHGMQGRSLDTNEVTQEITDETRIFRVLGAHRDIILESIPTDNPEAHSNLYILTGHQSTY
Mitogen-activated protein kinase 3 (Homo sapiens), sequence (P27361 whole entry): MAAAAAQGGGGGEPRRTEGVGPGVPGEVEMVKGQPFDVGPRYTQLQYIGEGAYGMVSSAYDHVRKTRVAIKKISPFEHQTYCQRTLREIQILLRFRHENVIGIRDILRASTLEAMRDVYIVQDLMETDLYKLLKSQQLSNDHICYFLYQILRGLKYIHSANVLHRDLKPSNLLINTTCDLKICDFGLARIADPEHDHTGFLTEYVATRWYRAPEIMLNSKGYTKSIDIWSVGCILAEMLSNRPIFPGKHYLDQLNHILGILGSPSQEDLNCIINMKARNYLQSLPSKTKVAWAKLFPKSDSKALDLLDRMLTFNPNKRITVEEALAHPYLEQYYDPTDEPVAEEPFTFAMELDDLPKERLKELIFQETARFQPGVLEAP
Mitogen-activated protein kinase kinase kinase kinase 3, sequence (Q8IVH8 whole entry, the tested form may be a part): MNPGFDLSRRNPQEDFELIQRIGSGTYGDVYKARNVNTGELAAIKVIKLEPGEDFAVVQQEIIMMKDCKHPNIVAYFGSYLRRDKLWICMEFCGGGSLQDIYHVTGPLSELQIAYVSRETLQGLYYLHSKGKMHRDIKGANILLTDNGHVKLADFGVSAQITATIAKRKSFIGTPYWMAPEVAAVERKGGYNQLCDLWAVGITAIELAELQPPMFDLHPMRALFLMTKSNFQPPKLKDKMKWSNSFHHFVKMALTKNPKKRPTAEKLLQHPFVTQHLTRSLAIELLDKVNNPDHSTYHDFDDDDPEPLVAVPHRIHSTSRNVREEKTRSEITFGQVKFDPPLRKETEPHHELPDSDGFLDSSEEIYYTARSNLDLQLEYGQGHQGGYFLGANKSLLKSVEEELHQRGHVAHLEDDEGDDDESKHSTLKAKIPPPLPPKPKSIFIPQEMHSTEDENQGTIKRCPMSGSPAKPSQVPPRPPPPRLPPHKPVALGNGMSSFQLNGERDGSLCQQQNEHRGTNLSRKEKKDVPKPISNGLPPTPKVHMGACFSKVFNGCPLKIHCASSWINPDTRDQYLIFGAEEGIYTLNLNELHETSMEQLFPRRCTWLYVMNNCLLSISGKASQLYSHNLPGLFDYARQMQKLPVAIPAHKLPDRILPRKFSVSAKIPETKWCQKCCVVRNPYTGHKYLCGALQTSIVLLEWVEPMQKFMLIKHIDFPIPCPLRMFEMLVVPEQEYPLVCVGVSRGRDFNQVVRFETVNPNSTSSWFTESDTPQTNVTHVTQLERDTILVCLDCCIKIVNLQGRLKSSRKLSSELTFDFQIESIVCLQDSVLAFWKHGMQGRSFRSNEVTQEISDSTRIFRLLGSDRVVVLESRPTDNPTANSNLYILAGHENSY
Misshapen-like kinase 1, sequence (Q8N4C8 whole entry, the tested form may be a part): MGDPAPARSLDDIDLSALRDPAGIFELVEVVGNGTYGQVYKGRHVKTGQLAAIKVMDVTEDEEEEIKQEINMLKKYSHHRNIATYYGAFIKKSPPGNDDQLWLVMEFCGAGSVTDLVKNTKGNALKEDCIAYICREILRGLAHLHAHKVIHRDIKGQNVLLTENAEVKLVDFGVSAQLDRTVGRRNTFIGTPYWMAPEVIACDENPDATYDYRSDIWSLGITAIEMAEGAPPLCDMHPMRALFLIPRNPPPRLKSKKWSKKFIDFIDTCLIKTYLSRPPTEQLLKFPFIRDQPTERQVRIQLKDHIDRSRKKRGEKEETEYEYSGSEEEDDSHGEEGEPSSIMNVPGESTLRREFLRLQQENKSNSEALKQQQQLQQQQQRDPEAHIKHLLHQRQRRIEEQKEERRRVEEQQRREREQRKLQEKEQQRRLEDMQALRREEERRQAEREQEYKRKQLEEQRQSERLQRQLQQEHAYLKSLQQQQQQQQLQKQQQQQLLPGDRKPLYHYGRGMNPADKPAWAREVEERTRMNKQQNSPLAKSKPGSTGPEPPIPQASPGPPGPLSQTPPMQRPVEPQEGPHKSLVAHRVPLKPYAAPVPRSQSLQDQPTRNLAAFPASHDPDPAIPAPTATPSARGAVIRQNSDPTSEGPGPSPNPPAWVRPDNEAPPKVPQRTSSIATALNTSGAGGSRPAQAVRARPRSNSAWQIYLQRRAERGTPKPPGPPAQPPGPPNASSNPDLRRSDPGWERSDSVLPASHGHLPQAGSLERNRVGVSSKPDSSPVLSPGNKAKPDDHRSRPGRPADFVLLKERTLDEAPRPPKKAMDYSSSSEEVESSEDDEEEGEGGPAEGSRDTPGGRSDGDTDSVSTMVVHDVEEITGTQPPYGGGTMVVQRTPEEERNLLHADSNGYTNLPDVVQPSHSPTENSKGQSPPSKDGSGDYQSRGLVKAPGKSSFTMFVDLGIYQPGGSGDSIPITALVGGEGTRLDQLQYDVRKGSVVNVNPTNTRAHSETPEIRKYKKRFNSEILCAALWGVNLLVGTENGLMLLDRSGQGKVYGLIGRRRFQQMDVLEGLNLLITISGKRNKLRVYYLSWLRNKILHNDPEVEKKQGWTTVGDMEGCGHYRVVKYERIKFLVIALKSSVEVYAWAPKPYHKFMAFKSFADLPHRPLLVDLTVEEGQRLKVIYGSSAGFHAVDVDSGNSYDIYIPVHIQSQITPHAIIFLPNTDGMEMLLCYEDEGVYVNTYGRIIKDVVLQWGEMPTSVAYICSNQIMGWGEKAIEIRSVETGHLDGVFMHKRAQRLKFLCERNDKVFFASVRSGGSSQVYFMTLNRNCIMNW
RAF proto-oncogene serine/threonine-protein kinase (Homo sapiens), sequence (P04049 whole entry): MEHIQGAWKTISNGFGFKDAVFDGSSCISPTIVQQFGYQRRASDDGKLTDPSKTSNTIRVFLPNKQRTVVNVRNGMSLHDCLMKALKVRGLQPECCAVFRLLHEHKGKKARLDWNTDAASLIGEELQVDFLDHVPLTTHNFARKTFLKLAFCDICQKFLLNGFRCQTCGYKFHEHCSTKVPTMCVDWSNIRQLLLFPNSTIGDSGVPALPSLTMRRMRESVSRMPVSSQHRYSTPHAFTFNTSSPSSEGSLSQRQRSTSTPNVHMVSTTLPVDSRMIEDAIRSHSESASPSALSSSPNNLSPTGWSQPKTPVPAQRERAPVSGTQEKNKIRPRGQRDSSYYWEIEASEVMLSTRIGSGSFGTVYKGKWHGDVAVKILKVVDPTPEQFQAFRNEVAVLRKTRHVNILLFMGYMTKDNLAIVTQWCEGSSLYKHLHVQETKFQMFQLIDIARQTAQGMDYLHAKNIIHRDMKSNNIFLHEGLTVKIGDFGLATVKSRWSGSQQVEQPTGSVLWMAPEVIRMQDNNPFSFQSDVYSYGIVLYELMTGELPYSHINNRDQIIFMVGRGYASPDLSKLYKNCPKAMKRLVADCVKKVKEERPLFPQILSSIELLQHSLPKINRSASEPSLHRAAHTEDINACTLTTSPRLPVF

Compound: O=c1[nH]ccc2c(-c3cnc4cc(F)ccn34)ccc(Nc3ccc(C4CCOCC4)c(CN4CC[C@H](F)C4)n3)c12
- IC50 [1]: 10.4 nM
- EC50 [2]: 41 nM
- EC50 [3]: 108 nM
- Activity ([3]; T-cell): Dose-dependent-effect
- half-life [4]: 36 min
- clearance [5]: 46 mL/min/kg
- AUC(0-t) [6]: 4140 ng·h/mL
- bioavailability [7]: 116%
- clearance [8]: 67 mL/min/kg
- Cmax [9]: 518 ng/mL
- AUC(0-t) [10]: 2010 ng·h/mL
- bioavailability [11]: 80%
- Cmax [12]: 1800 ng/mL
- IC50 [13]: 448 nM
- IC50 [14]: 85 nM
- IC50 [15]: 665 nM
- IC50 [16]: 104 nM
- IC50 (Misshapen-like kinase 1): 168 nM
- inhibition [17]: 56%
- inhibition [18]: 93%
- inhibition [19]: 94%
- inhibition [20]: 94%
- inhibition [21]: 85%
- inhibition (Homo sapiens): 1.5%
- inhibition [22]: 90%
- inhibition [23]: 50%
- inhibition in vivo at 3 mg/kg (CT26): 95%
- Activity [24]: Non-toxic
- Activity [25]: Non-toxic
- Activity [26]: Non-toxic
- Activity [27]: Non-toxic
- percent of control [28]: 0.6%
- percent of control [29]: 100%
- percent of control [30]: 100%
